Among the data in patent US10517826B2, “Anthostema senegalense-based composition for use as an anti-AIDS drug” (LABORATOIRE MICHEL IDERNE, priority 2014, dated 2019) are IC50 values, retold here.

As a reminder, the IC50 is the concentration at which inhibition is half-maximal.

The subject of experiment [1] is type 1 HIV virus (strain IIIB). Description: in vitro anti-HIV test, median inhibitory concentration on HIV-1. The format is cell-based. The conditions noted are these: HIV-1 Strain IIIB. How it is done:
(§1) An apolar extract and a polar extract of Anthostema senegalense were prepared by extraction with dichloromethane and methanol, respectively, from dried stem bark of Anthostema senegalense.
(§2) The efficacy of these extracts against the HIV virus was tested in vitro by measuring the median inhibitory concentration (IC50) of these substances on the type 1 HIV virus (strain IIIB) and on the type 2 virus (strain ROD). Their selectivity index was also measured in each case.
(§3) In order to serve as a control, three known antiretroviral molecules used in the treatment of the infection with HIV: nevirapine, dideoxycitidine and dideoxyinosine were also tested under the same conditions for comparison.

The test system of experiment [2] is type 2 virus (strain ROD). Description: in vitro anti-HIV test, median inhibitory concentration on HIV-2. The conditions noted are these: HIV-2 ROD Strain. The format is cell-based. As to the method: as §1, §2, §3

In brackets after ≈: the same amount, converted by molar mass. Where two headings read alike, the source gives them in different places.

Turning to `O=c1[nH]cnc2c1ncn2[C@H]1CC[C@@H](CO)O1` [Dideoxyinosine, dideoxyinosine], the results for the IC50 in experiment [1] and in experiment [2] were 2.89 µg/mL (≈ 12.2 µM) and 4.59 µg/mL (≈ 19.4 µM), respectively.

Take `Nc1ccn([C@H]2CC[C@@H](CO)O2)c(=O)n1` [Dideoxycitidine, dideoxycitidine]: the IC50 in experiment [1] is 0.29 µg/mL (≈ 1.37 µM); in experiment [2] it was 0.30 µg/mL (≈ 1.42 µM).

For the compound `Cc1ccnc2c1NC(=O)c1cccnc1N2C1CC1` [Nevirapine, nevirapine], the IC50 in experiment [1] (Human immunodeficiency virus 1, read-out: IC50) was 0.047 µg/mL (≈ 0.176 µM); in experiment [2] (Human immunodeficiency virus 2, read-out: IC50), > 4 µg/mL.
